What follows are compounds tested against JAK1 (Homo sapiens (Human), UniProt P23458) (assay: Analysis of JAK1 activity inhibition ability (ADP-Glo Kinase Assay)). Settings: JAK1 enzyme, ADP-Glo luminescence, ATP 250 uM, IRS-itide substrate, 30° C. 40 minutes; read-out: IC50.
Format: biochemical
How it was run: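 JAK1 enzyme, IRS-itide substrate (40 ng/mL) and 250 uM ATP, both as prepared in kinase buffer (Tris-HCl pH 7.5, MgCl2, BSA, DTT), reacted with compound 40 min at 30 °C. ADP formed was detected by ADP-Glo luminescence; IC50 is the concentration giving 50% inhibition versus control.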

Sequence of JAK1 (P23458 whole entry): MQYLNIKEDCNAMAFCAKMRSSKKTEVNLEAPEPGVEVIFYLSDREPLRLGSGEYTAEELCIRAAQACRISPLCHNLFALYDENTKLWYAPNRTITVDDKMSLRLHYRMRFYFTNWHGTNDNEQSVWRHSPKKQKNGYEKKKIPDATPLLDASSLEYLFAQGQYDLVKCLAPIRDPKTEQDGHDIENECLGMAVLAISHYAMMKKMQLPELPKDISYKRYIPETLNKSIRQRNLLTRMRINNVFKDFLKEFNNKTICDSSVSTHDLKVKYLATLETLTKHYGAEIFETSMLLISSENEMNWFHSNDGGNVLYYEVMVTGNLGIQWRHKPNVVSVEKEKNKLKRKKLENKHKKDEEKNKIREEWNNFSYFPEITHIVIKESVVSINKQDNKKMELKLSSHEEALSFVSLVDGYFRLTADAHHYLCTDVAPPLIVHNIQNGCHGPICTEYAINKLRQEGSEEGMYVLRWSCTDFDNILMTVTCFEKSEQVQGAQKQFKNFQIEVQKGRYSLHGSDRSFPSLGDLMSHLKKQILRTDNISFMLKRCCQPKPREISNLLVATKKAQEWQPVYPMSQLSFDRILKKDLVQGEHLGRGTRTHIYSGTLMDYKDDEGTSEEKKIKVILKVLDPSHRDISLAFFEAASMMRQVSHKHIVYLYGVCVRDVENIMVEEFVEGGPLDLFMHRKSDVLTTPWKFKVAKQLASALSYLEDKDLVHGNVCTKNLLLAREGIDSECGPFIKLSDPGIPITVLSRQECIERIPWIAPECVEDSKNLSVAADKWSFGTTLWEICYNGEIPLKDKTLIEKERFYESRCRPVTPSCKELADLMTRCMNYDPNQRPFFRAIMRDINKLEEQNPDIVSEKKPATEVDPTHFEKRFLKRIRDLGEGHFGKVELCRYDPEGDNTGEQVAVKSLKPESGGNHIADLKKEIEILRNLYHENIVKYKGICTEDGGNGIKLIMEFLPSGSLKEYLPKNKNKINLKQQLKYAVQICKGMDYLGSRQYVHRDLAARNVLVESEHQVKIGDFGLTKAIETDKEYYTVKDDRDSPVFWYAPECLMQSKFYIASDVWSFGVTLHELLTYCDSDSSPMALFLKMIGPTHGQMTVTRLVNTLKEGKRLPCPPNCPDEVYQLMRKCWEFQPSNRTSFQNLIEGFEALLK

| Structure (SMILES) | IC50 [nM] |
| --- | --- |
| CCS(=O)(=O)Nc1ccc(-c2nc(Nc3ccccc3)nc3[nH]ccc23)cc1 [Example 720, N-(4-(2-(phenylamino)-7H-pyrrolo[2,3-d]pyrimidin-4-yl)phenyl)ethanesulfonamide] | 20 to 200 |
| CCS(=O)(=O)N1CCC(n2cc(-c3cc(NC(=O)C4CC4)nc4[nH]ccc34)cn2)CC1 [Example 608, N-(4-(1-(1-(ethylsulfonyl)piperidin-4-yl)-1H-pyrazol-4-yl)-1H-pyrrolo[2,3-b]pyridin-6-yl)cyclopropanecarboxamide] | 20 to 200 |
| O=C(Nc1cc(-c2ccc(NS(=O)(=O)CC3CCCCC3)c(F)c2)c2cc[nH]c2n1)C1CC1 [Example 70, N-(4-(4-((cyclohexylmethyl)sulfonamido)-3-fluorophenyl)-1H-pyrrolo[2,3-b]pyridin-6-yl)cyclopropanecarboxamide] | 20 to 200 |
| CS(=O)(=O)Nc1ccc(-c2cc(NC(=O)C3CC3)nc3[nH]ccc23)cc1-c1ccccc1 [Example 129, N-(4-(6-(methylsulfonamido)-[1,1′-biphenyl]-3-yl)-1H-pyrrolo[2,3-b]pyridin-6-yl)cyclopropanecarboxamide] | > 200 |
| N#Cc1cccc(C(=O)N2C3CCC2CN(c2cc(NC(=O)C4CC4)nc4[nH]ccc24)C3)c1 [Example 686, N-(4-(8-(3-cyanobenzoyl)-3,8-diazabicyclo[3.2.1]octan-3-yl)-1H-pyrrolo[2,3-b]pyridin-6-yl)cyclopropanecarboxamide] | < 20 |
| O=C(Nc1nc(-c2ccc(NS(=O)(=O)c3ccc(Cl)cc3)cc2)c2cc[nH]c2n1)C1CC1 [Example 187, N-(4-(4-((4-chlorophenyl)sulfonamido)phenyl)-7H-pyrrolo[2,3-d]pyrimidin-2-yl)cyclopropanecarboxamide] | 20 to 200 |
| O=C(Nc1cc(C2=CCN(C(=O)c3cnoc3)CC2)c2cc[nH]c2n1)C1CC1 [Example 287, N-(4-(1-(isoxazole-4-carbonyl)-1,2,3,6-tetrahydropyridin-4-yl)-1H-pyrrolo[2,3-b]pyridin-6-yl)cyclopropanecarboxamide] | 20 to 200 |
| O=C(Nc1cc(-c2ccc(NC3CCN(C(=O)c4cc(F)cc(F)c4)CC3)cc2)c2cc[nH]c2n1)C1CC1 [Example 508, N-(4-(4-((1-(3,5-difluorobenzoyl)piperidin-4-yl)amino)phenyl)-1H-pyrrolo[2,3-b]pyridin-6-yl)cyclopropanecarboxamide] | > 200 |
| CCNC(=S)N1CCC(c2cc(NC(=O)C3CC3)nc3[nH]ccc23)CC1 [Example 658, N-(4-(1-(ethylcarbamothioyl)piperidin-4-yl)-1H-pyrrolo[2,3-b]pyridin-6-yl)cyclopropanecarboxamide] | > 200 |
| CCS(=O)(=O)N1CC(CC#N)(N2CC=C(c3cc(NC(=O)C4CC4)nc4[nH]ccc34)C(C)C2)C1 (stereo not drawn) [Example 626, N-(4-(1-(3-(cyanomethyl)-1-(ethylsulfonyl)azetidin-3-yl)-3-methyl-1,2,3,6-tetrahydropyridin-4-yl)-1H-pyrrolo[2,3-b]pyridin-6-yl)cyclopropanecarboxamide] | < 20 |
| O=C(Nc1cc(C2=CCN(C(=O)c3ccncc3)CC2)c2cc[nH]c2n1)C1CC1 [Example 277, N-(4-(1-isonicotinoyl-1,2,3,6-tetrahydropyridin-4-yl)-1H-pyrrolo[2,3-b]pyridin-6-yl)cyclopropanecarboxamide] | > 200 |
| CC(C)Oc1ccc(S(=O)(=O)Nc2ccc(-c3cc(NC(=O)C4CC4)nc4[nH]ccc34)cc2)cc1 [Example 19, N-(4-(4-((4-isopropoxyphenyl)sulfonamido)phenyl)-1H-pyrrolo[2,3-b]pyridin-6-yl)cyclopropanecarboxamide] | < 20 |
| O=C(Nc1cc(-c2ccc(NS(=O)(=O)N3CCOCC3)cc2)c2cc[nH]c2n1)C1CC1 [Example 214, N-(4-(4-(morpholine-4-sulfonamido)phenyl)-1H-pyrrolo[2,3-b]pyridin-6-yl)cyclopropanecarboxamide] | < 20 |
| CC1CN(C(=O)c2ccc[nH]2)CC=C1c1cc(NC(=O)C2CC2)nc2[nH]ccc12 (stereo not drawn) [Example 313, N-(4-(3-methyl-1-(1H-pyrrole-2-carbonyl)-1,2,3,6-tetrahydropyridin-4-yl)-1H-pyrrolo[2,3-b]pyridin-6-yl)cyclopropanecarboxamide] | 20 to 200 |
| CCS(=O)(=O)Nc1ccc(-c2cc(NCC3CC3)nc3[nH]ccc23)cc1F [Example 713, N-(4-(6-((cyclopropylmethyl)amino)-1H-pyrrolo[2,3-b]pyridin-4-yl)-2-fluorophenyl)ethanesulfonamide] | > 200 |
| CC1CN(C(=O)C(C#N)Cc2ccccc2)CC=C1c1cc(NC(=O)C2CC2)nc2[nH]ccc12 (stereo not drawn) [Example 360, N-(4-(1-(2-cyano-3-phenylpropanoyl)-3-methyl-1,2,3,6-tetrahydropyridin-4-yl)-1H-pyrrolo[2,3-b]pyridin-6-yl)cyclopropanecarboxamide] | 20 to 200 |
| CC1CN(C(=O)Cc2cccc(Br)c2)CC=C1c1cc(NC(=O)C2CC2)nc2[nH]ccc12 (stereo not drawn) [Example 347, N-(4-(1-(2-(3-bromophenyl)acetyl)-3-methyl-1,2,3,6-tetrahydropyridin-4-yl)-1H-pyrrolo[2,3-b]pyridin-6-yl)cyclopropanecarboxamide] | 20 to 200 |
| CC1CN(C(=O)c2cccc(F)c2F)CC=C1c1cc(NC(=O)C2CC2)nc2[nH]ccc12 (stereo not drawn) [Example 378, N-(4-(1-(2,3-difluorobenzoyl)-3-methyl-1,2,3,6-tetrahydropyridin-4-yl)-1H-pyrrolo[2,3-b]pyridin-6-yl)cyclopropanecarboxamide] | < 20 |
| O=C(Nc1cc(-c2ccc(C(F)(F)C(=O)N3CCOCC3)cc2)c2cc[nH]c2n1)C1CC1 [Example 572, N-(4-(4-(1,1-difluoro-2-morpholino-2-oxoethyl)phenyl)-1H-pyrrolo[2,3-b]pyridin-6-yl)cyclopropanecarboxamide] | 20 to 200 |
| C[C@H]1CC(c2cc(NC(=O)C3CC3)nc3[nH]ccc23)=CCN1C(=O)CC#N [Example 391, (S)—N-(4-(1-(2-cyanoacetyl)-2-methyl-1,2,3,6-tetrahydropyridin-4-yl)-1H-pyrrolo[2,3-b]pyridin-6-yl)cyclopropanecarboxamide] | 20 to 200 |
| CCS(=O)(=O)Nc1ccc(-c2cc(NC(=O)C3CC3C)nc3[nH]ccc23)cc1 (stereo not drawn) [Example 35, N-(4-(4-(ethylsulfonamido)phenyl)-1H-pyrrolo[2,3-b]pyridin-6-yl)-2-methylcyclopropane-1-carboxamide] | < 20 |
| CCc1cc(NS(=O)(=O)C2CC2)ccc1-c1cc(NC(=O)C2CC2)nc2[nH]ccc12 [Example 113, N-(4-(4-(cyclopropanesulfonamido)-2-ethylphenyl)-1H-pyrrolo[2,3-b]pyridin-6-yl)cyclopropanecarboxamide] | < 20 |
| O=C(Nc1cc(C2=CC3CCC(C2)N3C(=O)C2CC2)c2cc[nH]c2n1)C1CC1 (stereo not drawn) [Example 256, N-(4-(8-(cyclopropanecarbonyl)-8-azabicyclo[3.2.1]oct-2-en-3-yl)-1H-pyrrolo[2,3-b]pyridin-6-yl)cyclopropanecarboxamide] | < 20 |
| O=C(Nc1cc(C2=CCN(C(=O)c3ccno3)CC2)c2cc[nH]c2n1)C1CC1 [Example 288, N-(4-(1-(isoxazole-5-carbonyl)-1,2,3,6-tetrahydropyridin-4-yl)-1H-pyrrolo[2,3-b]pyridin-6-yl)cyclopropanecarboxamide] | 20 to 200 |
